“And” between values parts separate entries of the source, which are not always exact repeats. Equal entries are not always repeated.
Tests used:
[1] = Particle size distribution of crystallized TMX (Malvern Mastersizer); assay type: physicochemical
Protocol: An aqueous solution of TMX at a concentration of 11 mg/ml was prepared. The respective portion of TMX and water was added to an appropriately sized vessel and heated to 60° C. to dissolve the TMX. Once dissolved, phage particles having binding domains selected to bind to TMX were added to the achieve target loading set forth in the Table 1 below. The solution was allowed to cool to room temperature and aged until crystallization was observed. Crystalline products were separated from the liquor by filtration and particle size distribution was measured using a Malvern Mastersizer.

[2] = Crystal shape of TMX crystallized with phage particles (optical and electron microscopy); assay type: physicochemical; settings: TMX 11 mg/ml, phage loading C/2 to C (C=37 mg/ml), FIG. 1 and FIG. 2
Protocol: An aqueous solution of TMX at a concentration of 11 mg/ml was prepared. The respective portion of TMX and water was added to an appropriately sized vessel and heated to 60° C. to dissolve the TMX. […] Phage loading was a C, C/2, C/10, C/25, and C/100. The solution was allowed to cool to room temperature and aged until crystallization was observed. Crystalline products were separated from the liquor by filtration and characterized by microscopy.

[3] = average of the three measurements, TMX 11 mg/ml aqueous, cooled from 60° C.
[4] = single measurements, TMX 11 mg/ml aqueous, dissolved at 60° C., cooled to room temperature, crystals filtered, listed as TMX control

CN1COCN(Cc2cnc(Cl)s2)/C1=N\[N+](=O)[O-] [TMX, Thiamethoxam]
Size Dv (0.5) average [1, 3]: 23.1057 μm | Size Dv (0.95) average [1, 3]: 54.11 μm | Particle size of TMX crystallized in the presence of phage particles versus control ([1]; phage particles having binding domains selected to bind to TMX, C/25 and C/100): marked reduction | Size Dv (0.5) [1, 4]: 23.378 μm and 22.048 μm and 23.891 μm | Size Dv (0.95) [1, 4]: 52.18 μm and 54.16 μm and 55.74 μm | Crystal shape [2]: more bi-pyramidal shape

From patent publication US20150175974A1, “PRODUCING SOLIDS AND RELATED MOTHER LIQUORS” (Syngenta Participations AG, priority 2012, published 2015)
